According to US9340543B2, “Helquat derivatives, preparation thereof, and use thereof as medicaments” (USTAV ORGANICKE CHEMIE A BIOCHEMIE AKADEMIE VED CR, V.V.I., priority 2013, dated 2016):
pIC50: −log10 of the molar value.

Assays:
CCRF-CEM = assay: CellTiter-Glo luminescent cell viability assay (ATP quantification), CCRF-CEM; assay type: cell-based; conditions: acute lymphoblastic leukemia cells, 72 h treatment, viable cells by ATP luminescence
Method: (§1) Influence of the test compounds on viability (proliferation) of cell lines used was investigated in concentration range 0-100 μmol·l^−1.
Suspension cell line CCRF-CEM is a permanent in vitro culture of acute lymphoblastic leukemia. CCRF-CEM cell line was cultivated in RPMI 1640 medium (Sigma-Aldrich, cat. no. R8758) with addition of 2 mmol·l^−1 glutamine (Invitrogen, cat. no. 35050-038), 10% fetal bovine serum (FBS, Sigma-Aldrich, cat. no. F9665), 100 IU/ml peniciline, 100 μg/ml streptomycine (Sigma-Aldrich, cat. no. P0781). Passaging was performed 2-3× a week. Population doubling time of CCRF-CEM cell line was 20 h under the cultivation conditions used.
(§2) In order to test the sensitivity of the cell lines towards the studied helquats, cytotoxity test for cell viability assessment based on ATP quantification in cell lysates was used (CellTiter-Glo® Luminescent Cell Viability Assay, Promega, cat. no. G7571). In this test, ATP in cell lysates is detected using luciferase reaction. Luminescence intensity correlates with the ATP level and thus with quantity of metabolically active (viable) cells. IC50 value serves as the output, that is the concentration of the test compound which leads to 50% reduction in number of viable cells as compared to control, untreated population. To this end, IC50 value reflects efficiency of the test compound with regard to the given cell line.
(§3) Cells in the exponential growth phase were seeded into a 96-well microtiter plate were plated at 3000 cells per well. Each well contained 90 μl of cell suspension. The next day, 10 μl of 10× concentrated test compound solutions were added. The effect of helquats was investigated in concentration range 1 to 100 μmol·l^−1 (e.g. 1; 2.5; 5; 7.5; 10; 15; 25; 50 and 100 μmol·l^−1). Apart from the section containing the concentration series of the test compound, each well contained 2 control columns, the first with pure medium (so called blank) and the second with cells in medium without the test compounds (control). Into wells containing controls and blanks, volume of solvent (water) equal to the volume of added compound solutions was added. After 72 h of incubation with the test compounds viability was determined according to the manufacturer's instructions. In short: microtiter well plate was left 30 min to reach the room temperature after it has been removed from the incubator. Then, into each well, 100 μl of the prepared detection agent was added. Next, the well plate was shaken for 2 min to complete the full lysis. Next, after the well had been left in the dark for 15 min, the luminescence was measured in each well using luminometer (Tecan Genios, Austria).
(§4) IC50 value represents concentration of the test compound, which leads to 50% reduction of viable cells (inhibition of cell growth) after 72 h of the treatment. Each helquat concentration was tested in triplicates in a IC50 quantification and at least 3 independent IC50 quantification experiments were performed. IC50 values over 100 μmol·l^−1 were obtained by extrapolation of data measured in concentration range 0-100 μmol·l^−1 for the given helquat.

MOLT-4 = assay: CellTiter-Glo luminescent cell viability assay (ATP quantification), MOLT-4; assay type: cell-based; conditions: acute lymfoblastic leukemia cells, 72 h treatment, viable cells by ATP luminescence
Method: as §1
(§5) Suspension cell line MOLT-4 is a permanent in vitro culture of acute lymfoblastic leukemia. Linie MOLT-4 cell line was cultivated in RPMI 1640 medium (Sigma-Aldrich, see above) with addition of 2 mmol glutamine (Invitrogen, see above), 10% fetal bovine serum (FBS, Sigma-Aldrich, see above), 100 IU/ml peniciline, 100 μg/ml streptomycine (Sigma-Aldrich, see above). Passaging was performed 2-3× a week. Population doubling time of MOLT-4 cell line was 25 h under the cultivation conditions used.
as §2, §3, §4

HeLa = assay: CellTiter-Glo luminescent cell viability assay (ATP quantification), HeLa; assay type: cell-based; conditions: cervical cancer cells, 72 h treatment, viable cells by ATP luminescence
Method: as §1
Adherent cell line HeLa is a permanent in vitro culture derived from cervical cancer. HeLa cell line was cultivated in RPMI 1640 medium (Dutch modification) (Sigma-Aldrich, cat. no. R7638) with addition of 2 mmol·l^−1 glutamine (Invitrogen, see above), 10% fetal bovine serum (FBS, Sigma-Aldrich, see above), 100 IU/ml peniciline, 100 μg/ml streptomycine (Sigma-Aldrich, see above). Passaging was performed twice a week. After washing of cells with sterile PBS the cells were released by 0.25% trypsin/EDTA (Sigma-Aldrich, cat. no. T4049) at 37° C. for 2 minutes. The trypsin was inactivated by addition of 2 volumes of complete medium, cells were then centrifuged (250×g, 5 min), the cell pellet was resuspended, and transferred in the amount needed into a new cultivation bottle with fresh medium. Population doubling time of […] cell line was 25 h under the cultivation conditions used.
as §2, §3, §4

LoVo = assay: CellTiter-Glo luminescent cell viability assay (ATP quantification), LoVo; assay type: cell-based; conditions: Homo sapiens, LoVo, colorectal carcinoma cells, 72 h treatment
Method: as §1
Adherent cell line LoVo is a permanent in vitro culture derived from tissue of a patient with colorectal carcinoma. LoVo cell line was cultivated in DMEM medium (Sigma-Aldrich, cat. no. D8437) with addition of 2 mmol·l^−1 glutamine (Invitrogen, see above), 10% fetal bovine serum (FBS, Sigma-Aldrich, see above), 100 IU/ml peniciline, 100 μg/ml streptomycine (Sigma-Aldrich, see above). Passaging was performed twice a week. After washing of cells with sterile PBS, the cells were released by 0.25% trypsin/EDTA (Sigma-Aldrich, see above) at 37° C. for 2 minutes. The trypsin was inactivated by addition of 2 volumes of complete medium, cells were then centrifuged (250×g, 5 min), resuspended, and transferred in the amount needed into a new cultivation bottle with fresh medium. Population doubling time of LoVo cell line was 39 h under the cultivation conditions used.
as §2, §3, §4

HUVEC = assay: CellTiter-Glo luminescent cell viability assay (ATP quantification), HUVEC normal cells; assay type: cell-based, human; conditions: 72 h treatment
Method: as §1
Normal human endothelial cells from umbilical vein are adherent cells cultivated in plastic Petri dishes coated with collagen I. Into the cultivation medium (E-STIM™; BD Biosciences, cat. co. 355054) already containing 2% FBS (fetal bovine serum), hydrocortisone and heparin the following two further ingredients were added: epidermal growth factor (EGF, 5 μg) and mixture of factors facilitating growth of endothelial cells (ECGS, 100 mg). […] The cells were passaged after reaching 90% confluency by dissociation using 0.25% solution of trypsin/EDTA (1 ml; 3 min; 37° C.). After that 5 ml of complete cultivation medium E-STIM™ was added and the cells were centrifuged (180×g, 7 min), the pellet was resuspended, and transferred in the amount needed into a new Petri dish with fresh medium. The cells were used in experiments between the 3rd and the 8th passage after defreezing. Population doubling time of HUVEC cell line was 38 h under the cultivation conditions used.
as §2, §3, §4

NHDF-Ad = assay: CellTiter-Glo luminescent cell viability assay (ATP quantification), NHDF-Ad normal cells; assay type: cell-based; conditions: normal human dermal fibroblasts, 72 h treatment
Source text: as §1
Normal human dermal fibroblasts were cultivated without antibiotics in basal medium for fibroblasts (ATCC/LGC Standards, cat. no. PCS-201-030) with added “Fibroblast Growth Kit-Low serum” (ATCC/LGC Standards, cat. no. PCS-201-041) containing 2% FBS, L-glutamine, hydrocortisone, ascorbic acid, rh FGF beta, rh insulin. When 90% confluency was reached the fibroblasts were washed with sterile PBS (5 ml) and dissociated by addition of 0.25% solution of trypsin/EDTA (2 ml; 2 min; 37° C.). After that 5 ml of cultivation medium for fibroblasts was added and the cells were centrifuged (180×g, 7 min), the cell pellet was resuspended, and transferred in the amount needed into a new cultivation bottle with fresh medium. The same cell release procedure was applied when the cells were to be used in experiments. The cells were used in experiments between the 3rd and the 15th passage after defreeezing. Population doubling time of NHDF-Ad cell line was 33 h under the cultivation conditions used.
as §2, §3, §4

HL-60 = assay: CellTiter-Glo luminescent cell viability assay (ATP quantification), HL-60; assay type: cell-based; conditions: acute promyelocytic leukemia cells, 72 h treatment, viable cells by ATP luminescence
Method: as §1
as §5, with “HL-60” for “MOLT-4”, “promyelocytic” for “lymfoblastic”, “HL-60” for “Linie MOLT-4”, “mmol·l^−1” for “mmol”, “23” for “25”
as §2, §3, §4

[1] = numeric bound, values over 100 obtained by extrapolation of data measured at 0-100 μmol·l−1
[2] = HUVEC, normal human endothelial cells, numeric bound, values over 100 obtained by extrapolation of data measured at 0-100 μmol·l−1
[3] = Fibroblast, numeric bound, values over 100 obtained by extrapolation of data measured at 0-100 μmol·l−1
[4] = viable cells by ATP luminescence, class symbols
[5] = Fibroblast, viable cells by ATP luminescence, class symbols
[6] = HUVEC, normal human endothelial cells from umbilical vein, viable cells by ATP luminescence, class symbols

| Compound | pIC50 (CCRF-CEM; Homo sapiens, CCRF-CEM) | pIC50 (MOLT-4; Homo sapiens, MOLT-4) | pIC50 (HeLa; Homo sapiens, HeLa) | pIC50 (LoVo; [1]) | pIC50 (HUVEC; [2]) | pIC50 (NHDF-Ad; [3]) | pIC50 (CCRF-CEM) | pIC50 (MOLT-4) | pIC50 (HeLa) | pIC50 (HL-60) | pIC50 (HUVEC; normal human endothelial cells from umbilical vein, viable cells by ATP luminescence, class symbols) | pIC50 (NHDF-Ad; [4]) | pIC50 (NHDF-Ad; [5]) | pIC50 (HUVEC; normal human endothelial cells, numeric bound, values over 100 obtained by extrapolation of data measured at 0-100 μmol·l−1) | pIC50 (LoVo; [4]) | pIC50 (HUVEC; [6]) |
| --- | --- | --- | --- | --- | --- | --- | --- | --- | --- | --- | --- | --- | --- | --- | --- | --- |
| CN(C)c1ccc(/C=C/C=C/c2cc[n+]3c(c2)-c2c(ccc4c2-c2cccc[n+]2CC4)CC3)cc1 [compound 30, 2-((1E,3E)-4-(4-(dimethylamino)phenyl)buta-1,3-dien-1-yl)-6,7,10,11-tetrahydrodipyrido[2,1-a:1′,2′-k][2,9]phenanthroline-5,12-diium trifluoromethanesulfonate] | 3.82 to 4.29 | 3.82 to 4.29 | 3.82 to 4.29 | < 3.82 | < 3.82 | < 3.82 | – | – | – | – | – | – | – | – | – | – |
| COc1ccc2cc(/C=C/c3cc[n+]4c(c3)-c3c(c(C)c(C)c5c3-c3c6ccccc6cc[n+]3CC5)CC4)ccc2c1 [(P)-7, (P)-(E)-13-(2-(6-methoxynaphthalene-2-yl)vinyl)-6,7-dimethyl-4,5,8,9-tetrahydroiso-quinolino[1,2-a]pyrido[1,2-k][2,9]phenanthroline-3,10-diium trifluoromethanesulfonate] | – | – | – | – | – | – | 4.30 to 4.96 | 4.30 to 4.96 | 4.30 to 4.96 | 4.30 to 4.96 | 3.82 to 4.29 | 3.82 to 4.29 | – | – | – | – |
| Cc1c(C)c2c(c3c1CC[n+]1ccc(/C=C/c4ccc(N(C)C)cc4)cc1-3)-c1c3ccccc3cc[n+]1CC2 (racemic) [(rac)-1, (rac)-(E)-13-(4-(dimethylamino)styryl)-6,7-dimethyl-4,5,8,9-tetrahydroiso-quinolino[1,2-a]pyrido[1,2-k][2,9]phenanthroline-3,10-diium trifluoromethanesulfonate] | 4.30 to 4.96 | 4.30 to 4.96 | 4.30 to 4.96 | – | < 3.82 | – | – | – | – | – | – | – | 3.82 to 4.29 | – | – | – |
| Cc1c(C)c2c(c3c1CC[n+]1ccc(/C=C/c4ccc(N(C)C)cc4)cc1-3)-c1c3ccccc3cc[n+]1CC2 [(P)-1, (P)-(E)-13-(4-(dimethylamino)styryl)-6,7-dimethyl-4,5,8,9-tetrahydroiso-quinolino[1,2-a]pyrido[1,2-k][2,9]phenanthroline-3,10-diium trifluoromethanesulfonate] | – | – | – | – | – | – | 4.30 to 4.96 | 4.30 to 4.96 | 4.30 to 4.96 | – | – | 3.82 to 4.29 | – | < 3.82 | – | – |
| CN(C)c1ccc(/C=C/c2cccc3[n+]2CCCc2ccc4c(c2-3)-c2cccc(/C=C/c3ccc(N(C)C)cc3)[n+]2CCC4)cc1 (racemic) [(rac)-41, (rac)-4,15-bis((E)-4-(dimethylamino)styryl)-6,7,8,11,12,13-hexahydro-dipyrido[1,2-a:1′,2′-a′]benzo[2,1-c:3,4-c′]bisazepinediium trifluoromethanesulfonate] | 4.30 to 4.96 | 4.30 to 4.96 | 4.30 to 4.96 | – | – | – | – | – | – | – | – | – | 3.82 to 4.29 | – | 4.30 to 4.96 | 3.82 to 4.29 |
| C(=C\c1cc[n+]2c(c1)-c1c(ccc3c1-c1c4ccccc4cc[n+]1CC3)CC2)/c1cc2c3c(c1)CCCN3CCC2 (racemic) [(rac)-20, (rac)-(E)-13-(2-(1,2,3,5,6,7-hexahydropyrido[3,2,1-ij]quinolin-9-yl)vinyl)-4,5,8,9-tetrahydroisoquinolino[2,1-k]pyrido[2,1-a][2,9]phenanthroline-3,10-diium trifluoromethanesulfonate] | 4.30 to 4.96 | 4.30 to 4.96 | 4.30 to 4.96 | – | – | – | – | – | – | – | – | – | 3.82 to 4.29 | – | 3.82 to 4.29 | 3.82 to 4.29 |
| CN(C)c1ccc(/C=C/c2cc[n+]3c(c2)-c2c(ccc4c2-c2cccc[n+]2CCC4)CCC3)cc1 (racemic) [(rac)-35, (rac)-(E)-2-(4-(dimethylamino)styryl)-6,7,8,11,12,13-hexahydrodipyrido[1,2-a:1′,2′-a′]benzo[2,1-c:3,4-c′]bisazepinediium trifluoromethanesulfonate] | 3.82 to 4.29 | 3.82 to 4.29 | 3.82 to 4.29 | < 3.82 | < 3.82 | < 3.82 | – | – | – | – | – | – | – | – | – | – |
